In BindingDB's records for doi:10.3109/14756366.2013.823958 (Birla Institute of Technology, 2014):

biological target: T1, Secreted chorismate mutase (Mycobacterium tuberculosis (strain ATCC 25618 / H37Rv), UniProt P9WIB9); assay: CM Assay; conditions: pH 7.5; 37 °C
T1 sequence (P9WIB9 whole entry): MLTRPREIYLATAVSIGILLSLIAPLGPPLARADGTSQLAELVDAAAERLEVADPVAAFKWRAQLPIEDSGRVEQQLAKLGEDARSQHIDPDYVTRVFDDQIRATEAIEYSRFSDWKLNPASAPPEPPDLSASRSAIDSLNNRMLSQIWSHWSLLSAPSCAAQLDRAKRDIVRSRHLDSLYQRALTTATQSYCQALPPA
Method: Reaction volumes of 0.4 mL of chorismate (typically, 1 mM) in 50 mM Tris-HCl (pH 7.5), 0.5 mM EDTA, 0.1 mg/mL bovine serum albumin, and 10 mM β-mercaptoethanol were incubated at 37 °C for 5 min. The reaction was started with 5 pmol of MTB CM in a 10-μl volume (i.e. 185 ng of MTB CM equivalent toa 12.5nM final concentration of the dimer based on the molecular mass of 36 948 Da). The reaction was allowed to proceed at 37 °C and was terminated after 1 min to 5 min with 0.4 ml of 1N HCl. After a further incubation at 37 °C for 10 min to convert prephenate, which is formed in the enzymatic reaction, tophenylpyruvate, 0.8 ml of 2.5N NaOH was added. The absorbance of the phenylpyruvate chromophore was read at 320 nm. We set up a blank with no enzyme for every reaction to account for the non-enzymatic conversion of chorismate to prephenate and added the enzyme after NaOH addition. The A320 for the blank varied from 0.1 to 0.3, depending on the concentration of chorismate and duration of the reaction. Each reaction was carried out in triplicates.

SMILES | IC50
Cc1ccc(C(C)C)cc1O | 1.06 µM
C=CCc1ccc(O)c(OC)c1 [2-methoxy-4-(prop-2-en-1-yl)phenol4-allyl-2-methoxyphenol] | 28.6 µM
Cc1ccccc1O [Carvacrol derivative, 9] | 23.1 µM
COc1cc(C=O)ccc1O [4-hydroxy-3-methoxybenzaldehyde] | 24.8 µM
Cc1ccc(C(C)C)cc1 [Carvacrol derivative, 8] | 11.6 µM
CC1CCC(C(C)C)C(O)C1 (stereo not drawn) [Menthol] | 26.4 µM
CC(=O)Oc1cc(C)ccc1C(C)C [Thymol derivative, 17] | 4.08 µM
Cc1cc(Cl)c(C(C)C)cc1O [Carvacrol derivative, 15] | 13.7 µM
COc1cc(C)ccc1C(C)C [Thymol derivative, 21] | 21.6 µM
CC(C)c1cccc(O)c1 [Carvacrol derivative, 10] | 21.4 µM
Cc1cc(O)cc(C(C)C)c1 [Carvacrol derivative, 7] | 26.8 µM
C=C(C)C1CCC(C)CC1O (stereo not drawn) [(±)Neo isopulegol] | 13.6 µM
Cc1ccc(C(C)C)c(O)c1 [5-methyl-2-(propan-2-yl)phenol] | 28.4 µM
